The structures appear in SMILES notation. Numbered stars: 1 amine (or outer) side, 2 acyl side, 3 side chain; on linkers, the order of the positions; unused ones are H or OH. Square brackets hold non-standard residues; d marks the D form. Side chains are listed from the residue outwards. Peptide text beside a SMILES is read from it. * marks the point of attachment. γGlu = O=C(O)[C@H](CCC(=O)[*:2])N[*:1]; Palmitoyl = CCCCCCCCCCCCCCCC(=O)*; Aib = CC(C)(N)C(=O)O

Data set [1] concerns the target T1, human GLP-1 R (Homo sapiens, UniProt P43220).
T1 construct: expressed in transfected cells
The experiment in a line: Human GLP-1 receptor (GLP-1 R) activity assay, cAMP induction (AlphaScreen cAMP kit). Conditions: HEK293 cells expressing the human GLP-1 R, 15 min at 37° C., average values of multiple determinations, read-out: GLP1 R (EC50 in nM). Format: cell-based. The essentials:
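Stable HEK293 clones expressing human GIP R or GLP-1 R, grown 1 day, washed in Tyrode's buffer (10 mM HEPES, pH 7.4), then stimulated with peptide. Cells lysed and cAMP quantified by AlphaScreen competition with biotinylated cAMP, 1 h dark incubation at room temperature.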
A general note: Bead proximity is the source of the signal in Alpha formats.

The subject of data set [2] is Male C57BL/6J mice. The experiment in a line: IPGTT (Intraperitoneal Glucose Tolerance Test) in mice. Format: in vivo. Conditions: for Effect on glucose tolerance as compared to vehicle: glucose 2 g/kg i.p., peptides s.c., all time points, p<0.05 vs. vehicle. The procedure:
IPGTT (Intraperitoneal Glucose Tolerance Test) in Mice
Male C57BL/6J mice (Charles River, Germany) were maintained on normal chow (Altromin 1324, Brogaarden A/S, Gentofte, Denmark) and domestic quality water with added citric acid to pH˜3.6. The animals were housed pair-wise in a light-, temperature-, and humidity-controlled room (12:12 h light-dark cycle, with lights on at 06.00-18.00 hr; 20-22° C.; 50-80% relative humidity). Mice were fasted for 5 hr before the IPGTT. Peptides and vehicle were administered subcutaneously before the intraperitoneal injection of glucose (t=0 min; 2 g/kg; 5 ml/kg). Tail vein blood was sampled at time t=0 (before glucose administration), 15, 30, 45, 60, 90, and 120 min for measurements of blood glucose.

Data set [3] in a line: in vivo. Conditions: C57BL/6J, mouse, plasma, sc, 200 nmol/kg.
Description: C57BL/6J mice were given a single subcutaneous dose of 200 nmol/kg body weight of each peptide to be tested. Blood samples were drawn 0.5, 2, 4, 6, 8, 16, 24 and 36 hours post-dose by sublingual bleeding. At each time point, samples from two mice were taken, i.e. 16 mice per compound. The mice were euthanized immediately after blood sampling by cervical dislocation. Plasma samples were analyzed after solid phase extraction (SPE) by liquid chromatography mass spectrometry (LC-MS/MS).
For data set [4], the target named is T2, human GIP R (Homo sapiens, UniProt P48546).
T2 construct: expressed in transfected cells
T2 sequence (P48546 22-466): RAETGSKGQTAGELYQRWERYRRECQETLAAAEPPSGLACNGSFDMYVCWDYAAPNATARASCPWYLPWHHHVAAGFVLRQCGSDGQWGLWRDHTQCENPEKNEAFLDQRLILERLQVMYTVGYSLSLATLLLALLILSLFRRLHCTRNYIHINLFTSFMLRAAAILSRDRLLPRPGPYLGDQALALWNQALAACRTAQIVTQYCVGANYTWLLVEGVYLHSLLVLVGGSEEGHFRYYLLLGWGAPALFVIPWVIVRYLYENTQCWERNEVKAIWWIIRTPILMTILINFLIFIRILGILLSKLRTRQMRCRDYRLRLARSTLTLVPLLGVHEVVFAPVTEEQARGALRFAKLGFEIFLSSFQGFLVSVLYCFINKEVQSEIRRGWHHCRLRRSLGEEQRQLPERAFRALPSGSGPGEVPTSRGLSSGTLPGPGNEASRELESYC
The experiment in a line: Human GIP receptor (GIP R) activity assay, cAMP induction (AlphaScreen cAMP kit). The data set is classed as cell-based. Conditions: HEK293 cells expressing the human GIP R; cAMP induction, 15 min at 37° C.; average values of multiple determinations; read-out: GIP R (EC50 in nM). As to the method: Human GIP Receptor (GIP R) and GLP-1 Receptor (GLP-1 R) Activity Assay
In vitro effects of peptide conjugates of the invention were assessed by measuring the induction of cAMP following stimulation of the respective receptor by GIP, GLP1 or analogues of these, as outlined in the invention, using the AlphaSceen® cAMP kit from Perkin-Elmer according to instructions. Briefly. HEK293 cells expressing the human GIP R or GLP-1 R (stable cell lines generated through transfection of the cDNA for human GIP R or GLP-1 and selection of stable clones) were seeded at 30,000 cells/well in 96-well microtiter plates coated with 0.01% poly-L-lysine, and grown for 1 day in culture in 200 μl growth medium (DMEM, 10% FCS, Penicillin (100 IU/ml), Streptomycin (100 μg/ml)). On the day of analysis, growth medium was removed and the cells were washed once with […] Tyrode's buffer (Tyrode's Salts (9.6 g/1), 10 mM HEPES, pH 7.4). […] The Assay buffer was removed and cells are lysed in 80 μl Lysis buffer (0.1% w/v BSA, 5 mM HEPES, 0.3% v/v Tween-20) per well. From each well 10 μl lysed cells was transferred to a 384-well plate and mixed with 15 μl bead-mix (1 Unit/15 μl anti-cAMP Acceptor Beads, 1 Unit/15 μl Donor Beads, and 1 Unit/15 μl Biotinylated cAMP in Assay Buffer). The plates were mixed and incubated in the dark for an hour at room temperature before measuring using an Envision™ plate reader (Perkin-Elmer).

T1 sequence (P43220 24-463): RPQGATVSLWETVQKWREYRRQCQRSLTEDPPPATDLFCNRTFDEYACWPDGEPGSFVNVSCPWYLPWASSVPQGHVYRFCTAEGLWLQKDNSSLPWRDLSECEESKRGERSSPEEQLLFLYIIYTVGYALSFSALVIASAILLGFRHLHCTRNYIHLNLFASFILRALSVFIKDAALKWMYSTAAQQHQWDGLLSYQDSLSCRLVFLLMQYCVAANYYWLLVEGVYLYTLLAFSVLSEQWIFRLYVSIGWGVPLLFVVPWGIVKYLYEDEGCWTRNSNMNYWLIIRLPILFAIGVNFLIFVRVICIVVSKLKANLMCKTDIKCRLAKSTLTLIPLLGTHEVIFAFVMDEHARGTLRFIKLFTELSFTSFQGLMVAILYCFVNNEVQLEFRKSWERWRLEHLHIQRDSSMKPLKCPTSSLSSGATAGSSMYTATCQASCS

As for `CCCCCCCCCCCCCCCC(=O)N[C@@H](CCC(=O)NCCCC[C@H](NC(=O)[C@H](CCCCN)NC(=O)[C@H](CC(=O)O)NC(=O)[C@H](CC(C)C)NC(=O)[C@H](Cc1ccc(O)cc1)NC(=O)[C@@H](NC(=O)[C@H](CO)NC(=O)[C@H](Cc1ccc(O)cc1)NC(=O)[C@H](CC(=O)O)NC(=O)[C@H](CO)NC(=O)[C@@H](NC(=O)[C@H](Cc1ccccc1)NC(=O)[C@@H](NC(=O)CNC(=O)[C@H](CCC(=O)O)NC(=O)C(C)(C)NC(=O)[C@@H](N)Cc1ccc(O)cc1)[C@@H](C)O)[C@@H](C)O)[C@@H](C)CC)C(=O)N[C@@H](C)C(=O)N[C@@H](CCC(N)=O)C(=O)N[C@@H](CCCNC(=N)N)C(=O)N[C@@H](C)C(=O)N[C@@H](Cc1ccccc1)C(=O)N[C@H](C(=O)N[C@@H](CCC(=O)O)C(=O)N[C@@H](Cc1c[nH]c2ccccc12)C(=O)N[C@@H](CC(C)C)C(=O)N[C@@H](CC(C)C)C(=O)N[C@@H](C)C(=O)N[C@@H](CCC(N)=O)C(=O)NCC(=O)N1CCC[C@H]1C(=O)N[C@@H](CO)C(=O)N[C@@H](CO)C(=O)NCC(=O)N[C@@H](C)C(=O)N1CCC[C@H]1C(=O)N1CCC[C@H]1C(=O)N1CCC[C@H]1C(=O)N[C@@H](CO)C(N)=O)C(C)C)C(=O)O` [Compound 33] (H-Y[Aib]EGTFTSDYSIYLDKK([γGlu-Palmitoyl])AQRAFVEWLLAQGPSSGAPPPS-NH2), the EC50 in data set [1] worked out at 0.031 nM. Further, the “Effect on glucose tolerance as compared to vehicle” value in data set [2] is recorded as “significantly improved glucose tolerance”. For the same compound, the “Reduction in blood glucose compared with liraglutide” value in data set [2] (time t=60 min, p<0.05 vs. liraglutide) is “statistically significant greater reduction”. The compound further gave a half-life in data set [3] of 3.7 h.

As for `CC[C@H](C)[C@H](NC(=O)[C@H](CO)NC(=O)[C@H](Cc1ccc(O)cc1)NC(=O)[C@H](CC(=O)O)NC(=O)[C@H](CO)NC(=O)[C@@H](NC(=O)[C@H](Cc1ccccc1)NC(=O)[C@@H](NC(=O)CNC(=O)[C@H](CCC(=O)O)NC(=O)C(C)(C)NC(=O)[C@@H](N)Cc1ccc(O)cc1)[C@@H](C)O)[C@@H](C)O)C(=O)N[C@@H](Cc1ccc(O)cc1)C(=O)N[C@@H](CC(C)C)C(=O)N[C@@H](CC(=O)O)C(=O)N[C@@H](CCCCN)C(=O)N[C@@H](CCCCN)C(=O)N[C@@H](C)C(=O)N[C@@H](C)C(=O)N[C@@H](Cc1c[nH]cn1)C(=O)N[C@@H](CC(=O)O)C(=O)N[C@@H](Cc1ccccc1)C(=O)N[C@H](C(=O)N[C@@H](CCC(=O)O)C(=O)N[C@@H](Cc1c[nH]c2ccccc12)C(=O)N[C@@H](CC(C)C)C(=O)N[C@@H](CC(C)C)C(=O)N[C@@H](CO)C(=O)N[C@@H](C)C(N)=O)C(C)C` [Compound 42] (H-Y[Aib]EGTFTSDYSIYLDKKAAHDFVEWLLSA-NH2), the concentration giving a half-maximal response (EC50) in data set [4] came to 0.007 nM; in data set [1], 0.012 nM.

With `CC[C@H](C)[C@H](NC(=O)[C@H](CCCCN)NC(=O)[C@H](CC(=O)O)NC(=O)[C@H](CC(C)C)NC(=O)[C@H](C)NC(=O)[C@@H](NC(=O)[C@H](CO)NC(=O)[C@H](Cc1ccc(O)cc1)NC(=O)[C@H](CC(=O)O)NC(=O)[C@H](CO)NC(=O)[C@@H](NC(=O)[C@H](Cc1ccccc1)NC(=O)[C@@H](NC(=O)CNC(=O)[C@H](CCC(=O)O)NC(=O)C(C)(C)NC(=O)[C@@H](N)Cc1ccc(O)cc1)[C@@H](C)O)[C@@H](C)O)[C@@H](C)CC)C(=O)N[C@@H](C)C(=O)N[C@@H](CCC(N)=O)C(=O)N[C@@H](CCCNC(=N)N)C(=O)N[C@@H](C)C(=O)N[C@@H](Cc1ccccc1)C(=O)N[C@H](C(=O)N[C@@H](CC(N)=O)C(=O)N[C@@H](Cc1c[nH]c2ccccc12)C(=O)N[C@@H](CC(C)C)C(=O)N[C@H](C(=O)N[C@@H](C)C(=O)NC(C)(C)C(=O)N[C@@H](CCCCN)C(N)=O)C(C)C)C(C)C` [Compound 3] (H-Y[Aib]EGTFTSDYSIALDKIAQRAFVNWLVA[Aib]K-NH2), the values for the 50% effective concentration (EC50) in data set [4] and in data set [1] were 0.015 nM and 0.022 nM, respectively.

In the case of `CC[C@H](C)[C@H](NC(=O)[C@H](CO)NC(=O)[C@H](Cc1ccc(O)cc1)NC(=O)[C@H](CC(=O)O)NC(=O)[C@H](CO)NC(=O)[C@@H](NC(=O)[C@H](Cc1ccccc1)NC(=O)[C@@H](NC(=O)CNC(=O)[C@H](CCC(=O)O)NC(=O)C(C)(C)NC(=O)[C@@H](N)Cc1ccc(O)cc1)[C@@H](C)O)[C@@H](C)O)C(=O)N[C@@H](Cc1ccc(O)cc1)C(=O)N[C@@H](CC(C)C)C(=O)N[C@@H](CC(=O)O)C(=O)N[C@@H](CO)C(=O)N[C@@H](CCCCN)C(=O)N[C@@H](C)C(=O)N[C@@H](CCC(N)=O)C(=O)N[C@@H](CCCNC(=N)N)C(=O)N[C@@H](C)C(=O)N[C@@H](Cc1ccccc1)C(=O)N[C@H](C(=O)N[C@@H](CC(N)=O)C(=O)N[C@@H](Cc1c[nH]c2ccccc12)C(=O)N[C@@H](CC(C)C)C(=O)N[C@@H](CC(C)C)C(=O)N[C@@H](C)C(=O)NC(C)(C)C(=O)N[C@@H](CCCCN)C(N)=O)C(C)C` [Compound 16] (H-Y[Aib]EGTFTSDYSIYLDSKAQRAFVNWLLA[Aib]K-NH2), the concentration for a half-maximal effect (EC50) is 0.053 nM in data set [4] and 0.012 nM in data set [1].

Turning to `CC[C@H](C)[C@H](NC(=O)[C@H](CO)NC(=O)[C@H](Cc1ccc(O)cc1)NC(=O)[C@H](CC(=O)O)NC(=O)[C@H](CO)NC(=O)[C@@H](NC(=O)[C@H](Cc1ccccc1)NC(=O)[C@@H](NC(=O)CNC(=O)[C@H](CCC(=O)O)NC(=O)C(C)(C)NC(=O)[C@@H](N)Cc1ccc(O)cc1)[C@@H](C)O)[C@@H](C)O)C(=O)N[C@@H](Cc1ccc(O)cc1)C(=O)N[C@@H](CC(C)C)C(=O)N[C@@H](CCC(=O)O)C(=O)N[C@@H](CCCCN)C(=O)N[C@@H](CCCCN)C(=O)N[C@@H](C)C(=O)N[C@@H](C)C(=O)N[C@@H](Cc1c[nH]cn1)C(=O)N[C@@H](CC(=O)O)C(=O)N[C@@H](Cc1ccccc1)C(=O)N[C@H](C(=O)N[C@@H](CCC(=O)O)C(=O)N[C@@H](Cc1c[nH]c2ccccc12)C(=O)N[C@@H](CC(C)C)C(=O)N[C@@H](CC(C)C)C(=O)N[C@@H](CO)C(=O)N[C@@H](C)C(N)=O)C(C)C` [Compound 38] (H-Y[Aib]EGTFTSDYSIYLEKKAAHDFVEWLLSA-NH2), the EC50 in data set [4] worked out at 0.007 nM; in data set [1], 0.018 nM.

Regarding `CCCCCCCCCCCCCCCC(=O)N[C@@H](CCC(=O)NCCCC[C@H](NC(=O)[C@H](CCCCN)NC(=O)[C@H](CC(=O)O)NC(=O)[C@H](CC(C)C)NC(=O)C(C)(C)NC(=O)[C@@H](NC(=O)[C@H](CO)NC(=O)[C@H](Cc1ccc(O)cc1)NC(=O)[C@H](CC(=O)O)NC(=O)[C@H](CO)NC(=O)[C@@H](NC(=O)[C@H](Cc1ccccc1)NC(=O)[C@@H](NC(=O)CNC(=O)[C@H](CCC(=O)O)NC(=O)C(C)(C)NC(=O)[C@@H](N)Cc1ccc(O)cc1)[C@@H](C)O)[C@@H](C)O)[C@@H](C)CC)C(=O)N[C@@H](C)C(=O)N[C@@H](CCC(N)=O)C(=O)N[C@@H](CCCNC(=N)N)C(=O)N[C@@H](C)C(=O)N[C@@H](Cc1ccccc1)C(=O)N[C@H](C(=O)N[C@@H](CCC(=O)O)C(=O)N[C@@H](Cc1c[nH]c2ccccc12)C(=O)N[C@@H](CC(C)C)C(=O)N[C@@H](CC(C)C)C(=O)N[C@@H](C)C(=O)N[C@@H](CCC(N)=O)C(=O)NCC(=O)N1CCC[C@H]1C(=O)N[C@@H](CO)C(=O)N[C@@H](CO)C(=O)NCC(=O)N[C@@H](C)C(=O)N1CCC[C@H]1C(=O)N1CCC[C@H]1C(=O)N1CCC[C@H]1C(=O)N[C@@H](CO)C(N)=O)C(C)C)C(=O)O` [Compound 32] (H-Y[Aib]EGTFTSDYSI[Aib]LDKK([γGlu-Palmitoyl])AQRAFVEWLLAQGPSSGAPPPS-NH2), in data set [1], the concentration for a half-maximal effect (EC50) was 0.018 nM. The “Effect on glucose tolerance as compared to vehicle” value in data set [2] was “significantly improved glucose tolerance”. The half-life in data set [3] is 3.4 h.

The term EC50 denotes the concentration that produces a half-maximal response. One may read the half-life as the time in which the quantity being followed falls by half. Read a low half-life as rapid decline.

The record behind these values is patent publication US10100097B2, “GIP-GLP-1 dual agonist compounds and methods” (Zealand Pharma A/S, priority 2012, dated 2018).
